Test results taken from publication PMC3049939 (Chemical science (Royal Society of Chemistry : 2010), 2011).

System: porcine liver esterase (PLE)
Assay: fluorogenic hydrolysis, Michaelis-Menten fit
Format: biochemical, Sus scrofa
Conditions: HEPES pH 7.4, 23 ± 2 °C, DMSO up to 1.5% v/v

Row | Compound | Km | Km (two ester groups per molecule)
1 | Tokyo Green acetate [compound 7] | 12 µM | 
2 | CC(=O)Oc1ccc2c(c1)Oc1cc(OC(C)=O)ccc1C21OC(=O)c2ccccc21 [2a, fluorescein diacetate] |  | 11 µM
3 | CC(=O)Oc1ccc2nc3ccc(=O)cc-3oc2c1 [compound 10, resorufin acetate] | 16 µM | 
4 | CC(=O)OCOc1ccc2nc3ccc(=O)cc-3oc2c1 [compound 9, Resorufin acetoxymethyl ether] | 21 µM | 
5 | Tokyo green acetoxymethyl ether [compound 6] | 13 µM | 
